Measured values taken from PubChem BioAssay AID1963843 (Molecular Pharmacology Branch, DTP, NCI, 2024).
Where “and” joins values, the source holds several entries; their conditions need not be identical. Identical values can stand only once.

Tested on: 616215-338-R-J1-PDC complex spheroid viability
Experiment: Anticancer human tumor 616215-338-R-J1-PDC patient-derived colon adenocarcinoma cell line growth inhibition [POLQ]
Conditions: for viability, T/C: stronger effect = lower value
Protocol: Multicellular complex tumor spheroid response to Polymerase (POL) inhibitors (novobiocin, ART-558, RP6685) in combination with a variety of drugs and investigational agents in selected tumor cell lines
The POL inhibitors (novobiocin, ART-558, and RP6685) were evaluated both individually and in combination with standard of care and investigational anticancer small molecules within a complex spheroid model of solid tumors. . Complex spheroids include a stromal component modeled by human endothelial cells (HUVEC) and fibroblasts modeled by human mesenchymal stem cells (MSCs). The concentration ranges selected for each drug and investigational agent were based upon clinically achievable concentrations if the clinical Cmax of the agent was known.
Compounds. The drugs and investigational agents: novobiocin (NSC847541), ART-558 (NSC835418), RP-6685 (NSC848927), peposertib (NSC802822), ceralasertib (NSC780249), elimusertib (NSC800525), camonsertib (NSC841442), AZD-1390 (NSC803789), olaparib (NSC753686), talazoparib (NSC767125), rucaparib (NSC756644), sotorasib (NSC818433), MRTX-1133 (NSC836407), SN-38 (NSC673596), topotecan (NSC609699), epotoside (NSC141540), doxorubicin (NSC123127), gemcitabine (NSC613327), 5-fluorouracil (NSC19893), paclitaxel (NSC125973), vemurafenib (NSC761431), MSA-2 (NSC828583), SN-011 (NSC837082), adavosertib (NSC754352), prexasertib (NSC758257), carboplatin (NSC241240) and oxaliplatin (NSC266046), were obtained from the National Cancer Institute (NCI) Developmental Therapeutics Program Chemical Repository (21). The FDA-approved anticancer drug set is available from the Developmental Therapeutics Program at https://dtp.cancer.gov/organization/dscb/obtaining/. […] The stock solutions were prepared in dimethyl sulfoxide (DMSO, Sigma-Aldrich, St. Louis, MO, cat. D2650), except for the platinum compounds which were prepared in saline (Quality Biological, Gaithersburg, MD, cat. 114-055-101), at 800-fold the tested concentration and stored at -70 degrees C prior to their use. All drugs and investigational agents were tested over a range starting from a high concentration at or near the clinical Cmax and decreasing in half-log increments. If the clinical Cmax for an agent had not been determined, the highest concentration tested was 10 microM, except for SN-38, which was tested at a high concentration of 1 microM.
Cell Culture. All cells were maintained in an incubator at 37 degrees C and 5% CO2 with 95% humidity. The PDC lines were cultured according to standard operating procedures established by the NCI PDMR (https://pdmr.cancer.gov). Table 3 of the manuscript, lists the cell lines along with the number of the three cell types plated to form the mct-spheroids and media for tumor cell growth. After thawing, all PDC lines, except 997537-175-T-J1-PDC and 415267-285-R-J2-PDC, were cultured in Matrigel-coated flasks prepared with a working solution of 1X Ham's F-12 nutrient mix, without supplementation (Thermo Fisher Scientific, cat. 11765054), 100 U/mL penicillin-streptomycin (Thermo Fisher Scientific, cat. 15140122), and 2.5% Matrigel (Corning Inc., Corning, NY, cat. 354248) for the first three passages. The two PDC lines 997537-175-T-J1-PDC and 415267-285-R-J2-PDC were cultured on uncoated flasks. The 857933-349-R-J2-PDC line was cultured in 6C/Colon 1B media containing advanced DMEM/F-12 (Thermo Fisher Scientific, cat. 12634028), 10 mM HEPES (Thermo Fisher Scientific, cat. 15630080), 1X GlutaMAX supplement (Thermo Fisher Scientific, cat. 35050061), 0.1 mg/mL primocin (InvivoGen, San Diego, CA, cat. ant-pm-2), 10% defined fetal bovine serum, heat inactivated (HyClone Laboratories Inc., Logan, UT, cat. SH30070.03HI), 50% L-WRN conditioned media (ATCC, cat. CRL-3276), 1.25 mM N-Acetyl-L-cysteine (Sigma-Aldrich, cat. A9165), 10 mM nicotinamide (Sigma-Aldrich, cat. N0636), 1X B-27 supplement (Thermo Fisher Scientific, cat. 17504044), 1X N-2 supplement (Thermo Fisher Scientific, cat. […]

[1] = compound alone, run of 11/27/2023
[2] = compound alone, run of 12/05/2023
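Also: spheroids exposed to compounds for one week before readout.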
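For viability, T/C in this document: percent viability relative to DMSO vehicle wells taken as 100%.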

| Structure (SMILES) | viability, T/C (compound 0.0316 µM) | viability, T/C (compound 0.1 µM) | viability, T/C (compound 0.316 µM) | viability, T/C (compound 1 µM) | viability, T/C (compound 3.16 µM) | viability, T/C (compound 10 µM) | IC50 [1] [nM] | IC50 (curve of compound) | viability, T/C (compound 0.00316 µM) | viability, T/C (compound 0.01 µM) | IC50 [2] [nM] | viability, T/C (compound 0.000316 µM) | viability, T/C (compound 0.001 µM) |
| --- | --- | --- | --- | --- | --- | --- | --- | --- | --- | --- | --- | --- | --- |
| COC1C(OC(N)=O)C(O)C(Oc2ccc3c(O)c(NC(=O)c4ccc(O)c(CC=C(C)C)c4)c(=O)oc3c2C)OC1(C)C (stereo unspecified) | 101% [middle of 13 runs] | 102% [middle of 12 runs] | 103% [middle of 13 runs] | 99.2% [middle of 13 runs] | 101% [middle of 13 runs] | 100% [middle of 13 runs] | > 10000 |  |  |  |  |  |  |
| COc1cc(C2c3cc4c(cc3C(OC3OC5COC(C)OC5C(O)C3O)C3COC(=O)C23)OCO4)cc(OC)c1O (stereo unspecified) | 96.8% and 101% and 99.5% | 107% and 95.5% and 104% | 86.7% and 58% and 91.3% | 88.7% and 52.2% and 78.8% | 76.6% and 46.9% and 73% | 46.8% and 28.6% and 54.6% |  | 9060 nM and 1040 nM and > 10000 nM |  |  |  |  |  |
| COc1cc2cc(C(=O)CCC(=O)O)sc2cc1OC | 99% and 105% and 100% | 97.3% and 102% and 92.3% | 109% and 107% and 92.4% | 95.5% and 105% and 98% | 105% and 104% and 93.1% | 99.8% and 105% and 109% |  | > 10000 nM |  |  |  |  |  |
| COc1ccc([C@@H](O)c2cc(-c3ncnc4cc(N5CCOCC5)ccc34)c(F)cc2Cl)nn1 | 115% and 87.7% and 103% | 107% and 104% and 100% | 105% and 93.9% and 110% | 93.6% and 86.9% and 104% | 100% and 81.2% and 104% | 69.3% and 54.8% and 75.3% |  | > 10000 nM |  |  |  |  |  |
| COc1cccc(OCCCN)c1-c1cc(Nc2cnc(C#N)cn2)n[nH]1 | 88.6% and 68.9% and 76.7% | 86.1% and 63.8% and 55.3% | 64.6% and 33.6% and 49.9% | 55.9% and 30.1% and 34.7% |  |  |  | > 1000 nM and 150 nM and 201 nM | 95.5% and 106% and 104% | 101% and 98.7% and 97.4% |  |  |  |
| COc1cccc2c1C(=O)c1c(O)c3c(c(O)c1C2=O)CC(O)(C(=O)CO)CC3OC1CC(N)C(O)C(C)O1 (stereo unspecified) | 95.8% and 65% and 107% | 89.2% and 52.3% and 101% | 78.2% and 37.8% and 76.8% | 60.1% and 25.3% and 60.5% | 7.28% and 2.34% and 9.83% | 0.55% and 0.17% and 0.93% |  | 1190 nM and 133 nM and 1060 nM |  |  |  |  |  |
| Cc1cccc(N(C)C(=O)C2C(O)CCN2c2nc(C)cc(C(F)(F)F)c2C#N)c1 (stereo unspecified) | 97.4% [middle of 13 runs] | 99% [middle of 13 runs] | 100% [middle of 13 runs] | 105% [middle of 13 runs] | 104% [middle of 13 runs] | 102% [middle of 12 runs] | > 10000 |  |  |  | > 10000 |  |  |
| Cn1ncnc1[C@H]1c2n[nH]c(=O)c3cc(F)cc(c23)N[C@@H]1c1ccc(F)cc1 | 110% and 96.1% and 101% | 105% and 87.5% and 106% |  |  |  |  |  | > 100 nM | 102% and 98.1% and 97.2% | 94% and 95.9% and 104% |  | 90.3% and 102% and 97.5% | 104% and 91.8% and 103% |
| Nc1ccc(C#CCN(C(=O)Cc2ncc(C(F)(F)F)cc2C(F)(F)F)c2ccc(F)cc2)nn1 | 103% [middle of 13 runs] | 104% [middle of 13 runs] | 105% [middle of 13 runs] | 102% [middle of 13 runs] | 102% [middle of 13 runs] | 94.5% [middle of 13 runs] |  |  |  |  | > 10000 |  |  |
| Nc1ccn(C2OC(CO)C(O)C2(F)F)c(=O)n1 (stereo unspecified) | 49.9% and 23.8% and 51.6% | 31.7% and 15.1% and 34.2% | 23.7% and 12.2% and 23.2% | 30.1% and 13.1% and 30.2% | 31.8% and 14.3% and 32.1% | 34.7% and 16.4% and 33.6% |  | < 31.6 nM |  |  |  |  |  |
| O=C(Nc1ccc(O)c(NS(=O)(=O)c2ccc(F)cc2)c1)c1ccc(-c2ccccc2)cc1 | 104% and 110% and 106% | 107% and 100% and 90.8% | 107% and 108% and 104% | 108% and 92.6% and 100% | 102% and 106% and 114% | 60.7% and 49.2% and 101% |  | > 10000 nM and 9860 nM |  |  |  |  |  |
| O=C(c1cc(Cc2n[nH]c(=O)c3ccccc23)ccc1F)N1CCN(C(=O)C2CC2)CC1 | 89.5% and 67.6% and 97.3% | 103% and 72.8% and 110% | 102% and 71.6% and 106% | 101% (2×) and 72.6% | 101% and 73.1% and 87.7% | 99.3% and 58.1% and 60.9% |  | > 10000 nM |  |  |  |  |  |
| O=c1[nH]cc(F)c(=O)[nH]1 | 83.7% and 97.8% and 96% | 96.6% and 86.5% and 89.8% | 68.4% and 54.6% and 65.8% | 65.9% and 43.5% and 65.6% | 63.8% and 43.7% and 60.7% | 62.4% and 39.2% and 60.1% |  |  |  |  |  |  |  |
